Measured values published in ChEMBL document CHEMBL1201862, “PubChem BioAssay data set” (2004).
Blank lines part the entries; values can stand above or below the compound they belong to. The source made the active and inactive calls.

Experiments:
[1] = inhibition of ARNT PAS-B/TACC3 complex formation – biochemical, AlphaScreen, cherry-picked samples, confirmation (AID 651703); format: functional, Homo sapiens;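 also: His-tagged ARNT PAS-B domain paired with GST-TACC3 E629A dimer coactivator fragment; potency of inhibitors that break up the complex and lower AlphaScreen signal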
[2] = target: Alkaline phosphatase, placental type (Homo sapiens, UniProt P05187); assay: human placental alkaline phosphatase inhibition – biochemical, luminescence, confirmation (AID 1512); format: functional
[3] = target: Melanin-concentrating hormone receptor 1 (Homo sapiens, UniProt Q99705); assay: Late-stage fluorescence-based counterscreen for antagonists of the G-protein coupled receptor 7 (GPR7): cell-based dose response assay to identify antagonists of the melanin-concentrating hormone receptor 1 (MCHR1) Set 6.; format: functional
[4] = target: Neuropeptides B/W receptor type 1 (Homo sapiens, UniProt P48145); assay: human NPBW1 receptor blockade, IC50 – cell-based, fluorescence, dose response, set 6, late-stage follow-up (AID 588583); format: functional
[5] = target: T1, Sentrin-specific protease 6 (Homo sapiens, UniProt Q9GZR1); assay: SAR Analysis of small molecule inhibitors of Sentrin-specific protease 6 (SENP6) using a Luminescent assay. [Related pubchem assays (depositor defined):AID2582, AID2599]; format: functional
T1 sequence (Q9GZR1 whole entry): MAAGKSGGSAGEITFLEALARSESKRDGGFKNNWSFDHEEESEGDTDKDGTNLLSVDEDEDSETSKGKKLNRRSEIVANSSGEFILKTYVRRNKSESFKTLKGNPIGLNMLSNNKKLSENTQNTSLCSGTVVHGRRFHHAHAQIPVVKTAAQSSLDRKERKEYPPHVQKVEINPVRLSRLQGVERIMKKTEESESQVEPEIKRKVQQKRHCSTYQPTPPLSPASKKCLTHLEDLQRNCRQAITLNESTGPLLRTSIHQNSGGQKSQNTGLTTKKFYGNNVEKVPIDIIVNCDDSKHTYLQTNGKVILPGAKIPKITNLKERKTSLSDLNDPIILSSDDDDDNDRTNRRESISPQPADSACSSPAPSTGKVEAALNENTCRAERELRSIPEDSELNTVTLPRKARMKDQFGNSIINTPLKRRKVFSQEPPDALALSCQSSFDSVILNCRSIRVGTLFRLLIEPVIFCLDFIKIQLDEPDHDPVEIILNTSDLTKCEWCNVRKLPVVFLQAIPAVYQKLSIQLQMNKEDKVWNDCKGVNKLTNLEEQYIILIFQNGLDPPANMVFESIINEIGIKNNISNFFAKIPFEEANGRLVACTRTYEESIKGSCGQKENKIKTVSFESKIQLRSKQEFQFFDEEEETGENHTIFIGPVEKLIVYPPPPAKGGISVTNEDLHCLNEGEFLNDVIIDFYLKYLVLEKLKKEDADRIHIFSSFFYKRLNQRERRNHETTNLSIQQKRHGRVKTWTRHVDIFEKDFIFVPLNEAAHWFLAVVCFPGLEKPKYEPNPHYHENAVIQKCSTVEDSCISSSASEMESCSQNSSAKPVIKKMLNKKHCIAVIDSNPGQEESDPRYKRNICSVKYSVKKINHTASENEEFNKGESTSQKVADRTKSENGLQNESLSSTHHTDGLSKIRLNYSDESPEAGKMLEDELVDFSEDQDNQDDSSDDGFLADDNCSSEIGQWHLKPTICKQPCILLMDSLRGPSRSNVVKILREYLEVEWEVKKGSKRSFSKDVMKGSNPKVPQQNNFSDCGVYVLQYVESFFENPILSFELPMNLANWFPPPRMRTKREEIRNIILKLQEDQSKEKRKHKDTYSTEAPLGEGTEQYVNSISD

[6] = target: T2, Sentrin-specific protease 8 (Homo sapiens, UniProt Q96LD8); assay: inhibition of human SENP8 cleavage activity – biochemical, luminescence, SAR follow-up (AID 504501); format: functional
T2 sequence (Q96LD8 whole entry): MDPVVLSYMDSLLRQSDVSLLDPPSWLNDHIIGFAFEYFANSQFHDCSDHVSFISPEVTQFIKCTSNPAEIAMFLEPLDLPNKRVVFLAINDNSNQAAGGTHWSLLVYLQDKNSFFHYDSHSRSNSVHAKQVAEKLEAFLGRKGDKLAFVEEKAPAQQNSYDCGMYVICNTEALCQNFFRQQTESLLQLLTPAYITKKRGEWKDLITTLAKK

Caspase-3 = target: T3, Caspase-3 (Homo sapiens, UniProt P42574); assay: SAR Analysis of small molecule inhibitors of Sentrin-specific proteases (SENPs) using a Caspase-3 Selectivity assay. [Related pubchem assays (depositor defined):AID2540, AID2599, AID434973, AID489001]; format: functional
T3 sequence (P42574 whole entry): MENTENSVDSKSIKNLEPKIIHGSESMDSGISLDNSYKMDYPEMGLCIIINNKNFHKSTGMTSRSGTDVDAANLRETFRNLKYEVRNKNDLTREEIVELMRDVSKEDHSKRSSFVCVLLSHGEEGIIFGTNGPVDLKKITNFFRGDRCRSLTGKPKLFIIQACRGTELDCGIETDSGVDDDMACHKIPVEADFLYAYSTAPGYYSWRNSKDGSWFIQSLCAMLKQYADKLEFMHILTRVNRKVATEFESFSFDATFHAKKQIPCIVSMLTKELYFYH

[7] = target: T4, Sentrin-specific protease 7 (Homo sapiens, UniProt Q9BQF6); assay: inhibition of human SENP7 cleavage activity – biochemical, luminescence, SAR follow-up (AID 504497); format: functional
T4 sequence (Q9BQF6 whole entry): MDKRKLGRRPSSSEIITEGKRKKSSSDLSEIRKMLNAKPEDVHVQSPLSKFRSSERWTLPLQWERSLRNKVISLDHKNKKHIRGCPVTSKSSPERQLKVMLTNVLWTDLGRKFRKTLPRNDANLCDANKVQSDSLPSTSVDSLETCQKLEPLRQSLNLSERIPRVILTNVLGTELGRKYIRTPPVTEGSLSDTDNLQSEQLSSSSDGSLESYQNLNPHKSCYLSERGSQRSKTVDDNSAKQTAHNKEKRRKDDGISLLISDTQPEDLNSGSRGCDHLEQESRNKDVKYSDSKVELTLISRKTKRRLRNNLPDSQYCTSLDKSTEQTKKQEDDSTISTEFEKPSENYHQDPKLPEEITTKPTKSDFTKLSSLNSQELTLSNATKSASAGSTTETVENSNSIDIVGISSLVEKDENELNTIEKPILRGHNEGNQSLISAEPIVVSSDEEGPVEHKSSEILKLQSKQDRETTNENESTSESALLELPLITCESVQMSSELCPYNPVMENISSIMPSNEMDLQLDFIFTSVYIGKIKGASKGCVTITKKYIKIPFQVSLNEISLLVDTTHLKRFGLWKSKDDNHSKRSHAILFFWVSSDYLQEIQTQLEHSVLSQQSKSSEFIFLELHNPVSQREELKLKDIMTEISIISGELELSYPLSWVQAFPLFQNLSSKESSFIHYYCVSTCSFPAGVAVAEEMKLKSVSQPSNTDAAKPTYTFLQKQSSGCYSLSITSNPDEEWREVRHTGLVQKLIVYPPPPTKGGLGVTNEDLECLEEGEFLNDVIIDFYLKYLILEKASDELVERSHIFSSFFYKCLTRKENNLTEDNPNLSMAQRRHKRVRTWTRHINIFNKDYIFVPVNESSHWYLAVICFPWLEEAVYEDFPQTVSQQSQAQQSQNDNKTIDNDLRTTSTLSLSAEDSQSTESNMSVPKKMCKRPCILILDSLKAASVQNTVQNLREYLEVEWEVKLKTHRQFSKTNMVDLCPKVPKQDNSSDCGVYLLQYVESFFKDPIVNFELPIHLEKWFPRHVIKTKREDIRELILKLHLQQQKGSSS

[8] = target: Protein disulfide-isomerase (Homo sapiens, UniProt P07237); assay: inhibition of PDI-driven insulin aggregation – biochemical, turbidity, absorbance, cherry-picked samples, dose response (AID 602350); format: functional
[9] = target: T5, Alkaline phosphatase, tissue-nonspecific isozyme (Homo sapiens, UniProt P05186); assay: TNAP enzyme inhibition by screening hits, dose response, selectivity assay for mouse IAP inhibitor project, biochemical, human TNAP, uHTS hits (AID 488906); format: functional
T5 sequence (P05186 whole entry): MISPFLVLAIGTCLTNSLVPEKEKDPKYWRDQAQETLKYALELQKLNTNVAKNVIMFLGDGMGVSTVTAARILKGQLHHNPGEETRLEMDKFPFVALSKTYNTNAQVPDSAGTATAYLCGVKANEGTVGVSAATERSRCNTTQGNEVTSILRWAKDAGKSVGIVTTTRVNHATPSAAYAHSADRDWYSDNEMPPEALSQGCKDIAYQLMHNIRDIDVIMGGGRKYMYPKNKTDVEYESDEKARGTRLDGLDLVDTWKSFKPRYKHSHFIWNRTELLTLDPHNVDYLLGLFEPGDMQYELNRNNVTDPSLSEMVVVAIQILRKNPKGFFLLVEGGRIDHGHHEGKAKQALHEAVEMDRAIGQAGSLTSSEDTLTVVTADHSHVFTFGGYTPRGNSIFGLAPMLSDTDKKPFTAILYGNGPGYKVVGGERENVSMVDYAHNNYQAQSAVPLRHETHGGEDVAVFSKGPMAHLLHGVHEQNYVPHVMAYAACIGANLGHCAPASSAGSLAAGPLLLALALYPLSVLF

[10] = target: Intestinal-type alkaline phosphatase (Mus musculus, UniProt P24822); assay: PubChem AID 488785; format: functional
[11] = target: Intestinal-type alkaline phosphatase (Homo sapiens, UniProt P09923); assay: activation of human intestinal alkaline phosphatase – biochemical, dose response (AID 488873); format: functional
[12] = target: Dual specificity tyrosine-phosphorylation-regulated kinase 1A (Rattus norvegicus, UniProt Q63470); format: biochemical, Homo sapiens
Protein Wnt-3a = Protein Wnt-3a (Mus musculus, UniProt P27467); assay: antagonism of Wnt3a pathway luciferase reporter – Wnt-LIGHT cells, luminescence, selectivity assay for Gli-SUFU antagonist project, dose response (AID 651570); format: functional; settings: read-out: IC50_Mean;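 also: Wnt-LIGHT reporter cells stimulated with conditioned medium from Wnt3a-producing cells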
[13] = NIH3T3 cell viability loss – ATP luminescence, mouse fibroblasts, counter-screen, dose response (AID 2010); format: functional, cell-based;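 also: cells exposed to compound for about 90 hours before reading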
[14] = Trypanosoma cruzi growth suppression in host cells – NIH3T3 host cells, beta-gal luminescence, confirmation (AID 2044); format: functional, cell-based;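 also: intracellular parasites grown in NIH/3T3 mouse fibroblasts as host cells; luminescent beta-galactosidase reporter signal from transgenic T. cruzi replicating inside host cells; inhibitors lower the luminescence signal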
[15] = target: Mitochondrial peptide methionine sulfoxide reductase (Bos taurus, UniProt P54149); format: functional;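 also: absorbance read-out, biochemical high-throughput dose-response screen for MsrA inhibitors, confirmatory; recombinant bovine MsrA coupled to E. coli TrxB with NADPH and selenocystamine; potency is for inhibitors of MsrA activity on DMSO substrate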
[16] = target: T6, Heat shock factor protein 1 (Mus musculus, UniProt P38532); assay: decrease of HSF1-responsive luciferase luminescence – cell-based, NIH3T3, dose retest, confirmation (AID 2382); format: functional;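 also: NIH3T3 fibroblasts with HSF1-driven luciferase reporter stressed by proteasome inhibitor MG132; luminescence from HSF1-driven luciferase expression after 8 hours of MG132 stress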
T6 sequence (P38532 whole entry): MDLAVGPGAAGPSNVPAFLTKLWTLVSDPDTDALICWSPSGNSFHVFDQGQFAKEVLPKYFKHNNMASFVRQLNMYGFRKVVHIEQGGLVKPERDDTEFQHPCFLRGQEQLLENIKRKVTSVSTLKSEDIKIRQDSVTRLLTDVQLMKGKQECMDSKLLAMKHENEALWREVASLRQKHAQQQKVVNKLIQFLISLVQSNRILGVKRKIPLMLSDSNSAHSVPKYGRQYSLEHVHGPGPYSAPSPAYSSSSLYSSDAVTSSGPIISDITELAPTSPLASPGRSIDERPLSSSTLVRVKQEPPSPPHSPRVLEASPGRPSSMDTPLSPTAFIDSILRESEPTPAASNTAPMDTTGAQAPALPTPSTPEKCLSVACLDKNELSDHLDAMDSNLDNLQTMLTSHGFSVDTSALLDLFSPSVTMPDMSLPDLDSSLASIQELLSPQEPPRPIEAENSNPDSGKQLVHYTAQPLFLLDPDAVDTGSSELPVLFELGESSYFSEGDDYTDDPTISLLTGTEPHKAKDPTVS

Melanocortin receptor 4 = Melanocortin receptor 4 (Homo sapiens, UniProt P32245); format: functional, cell-based;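 also: Cell-based assay with luminescence read-out, confirmatory dose-response testing for agonist activity of biased ligands at MC4R; human U2OS cells with tagged receptor and beta-arrestin; potency of agonists that increase receptor coupling to beta-arrestin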
[17] = target: Benomyl/methotrexate resistance protein (Candida albicans, UniProt P28873); assay: Candida albicans Mdr1 pump inhibition curves – singleplex, Cherry Pick1 hits, dose response (AID 588608); format: functional
Sequence of Benomyl/methotrexate resistance protein (P28873 whole entry): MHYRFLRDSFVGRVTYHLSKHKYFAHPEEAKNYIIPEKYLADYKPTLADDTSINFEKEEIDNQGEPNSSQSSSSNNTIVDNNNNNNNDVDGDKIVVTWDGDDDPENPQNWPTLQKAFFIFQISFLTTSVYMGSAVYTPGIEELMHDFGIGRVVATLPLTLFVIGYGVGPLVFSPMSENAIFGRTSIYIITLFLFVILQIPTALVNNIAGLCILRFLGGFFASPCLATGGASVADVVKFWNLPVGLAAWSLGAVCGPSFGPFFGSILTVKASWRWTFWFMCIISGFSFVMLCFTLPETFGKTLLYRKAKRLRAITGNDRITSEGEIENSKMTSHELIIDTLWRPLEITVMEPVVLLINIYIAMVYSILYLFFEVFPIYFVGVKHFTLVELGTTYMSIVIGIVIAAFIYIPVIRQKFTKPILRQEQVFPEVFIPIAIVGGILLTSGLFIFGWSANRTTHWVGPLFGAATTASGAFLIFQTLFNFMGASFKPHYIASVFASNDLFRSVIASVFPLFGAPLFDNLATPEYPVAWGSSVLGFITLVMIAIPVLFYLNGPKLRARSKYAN

Sequence of Protein disulfide-isomerase (P07237 whole entry): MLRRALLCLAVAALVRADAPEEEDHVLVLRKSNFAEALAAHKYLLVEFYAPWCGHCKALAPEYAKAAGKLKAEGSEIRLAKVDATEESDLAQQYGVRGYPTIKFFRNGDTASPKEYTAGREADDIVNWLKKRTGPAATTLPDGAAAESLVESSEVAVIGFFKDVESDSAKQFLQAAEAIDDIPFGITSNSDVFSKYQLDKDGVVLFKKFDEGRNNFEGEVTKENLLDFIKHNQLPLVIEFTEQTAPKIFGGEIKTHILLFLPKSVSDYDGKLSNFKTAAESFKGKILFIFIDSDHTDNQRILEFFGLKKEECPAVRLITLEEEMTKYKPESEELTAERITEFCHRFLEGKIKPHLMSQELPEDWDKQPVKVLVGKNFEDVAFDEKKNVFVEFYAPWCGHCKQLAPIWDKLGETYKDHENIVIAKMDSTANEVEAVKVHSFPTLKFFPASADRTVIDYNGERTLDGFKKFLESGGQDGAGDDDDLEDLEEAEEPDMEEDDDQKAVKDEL
Sequence of Alkaline phosphatase, placental type (P05187 whole entry): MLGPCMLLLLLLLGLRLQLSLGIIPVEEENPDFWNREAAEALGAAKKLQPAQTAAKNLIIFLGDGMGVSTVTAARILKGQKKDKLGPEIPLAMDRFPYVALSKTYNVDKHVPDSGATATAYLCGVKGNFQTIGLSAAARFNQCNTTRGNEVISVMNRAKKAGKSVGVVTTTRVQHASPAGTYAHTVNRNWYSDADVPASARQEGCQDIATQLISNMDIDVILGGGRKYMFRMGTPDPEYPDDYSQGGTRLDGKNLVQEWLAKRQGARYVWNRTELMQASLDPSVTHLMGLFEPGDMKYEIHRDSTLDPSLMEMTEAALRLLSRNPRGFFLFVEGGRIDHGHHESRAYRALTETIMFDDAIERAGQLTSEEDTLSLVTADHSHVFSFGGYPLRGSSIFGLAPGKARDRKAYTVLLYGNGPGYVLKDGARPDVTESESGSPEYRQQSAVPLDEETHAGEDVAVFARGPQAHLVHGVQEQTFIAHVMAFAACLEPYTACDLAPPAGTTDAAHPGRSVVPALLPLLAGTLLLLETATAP
Sequence of Neuropeptides B/W receptor type 1 (P48145 whole entry): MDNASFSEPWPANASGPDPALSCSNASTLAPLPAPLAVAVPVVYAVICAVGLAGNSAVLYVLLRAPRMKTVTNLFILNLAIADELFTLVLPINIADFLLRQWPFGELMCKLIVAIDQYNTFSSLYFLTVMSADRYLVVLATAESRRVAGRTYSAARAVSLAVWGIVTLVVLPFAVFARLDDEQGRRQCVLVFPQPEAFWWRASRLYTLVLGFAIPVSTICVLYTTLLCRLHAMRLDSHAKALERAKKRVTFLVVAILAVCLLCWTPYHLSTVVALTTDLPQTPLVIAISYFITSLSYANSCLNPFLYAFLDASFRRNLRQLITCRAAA
Sequence of Melanin-concentrating hormone receptor 1 (Q99705 whole entry): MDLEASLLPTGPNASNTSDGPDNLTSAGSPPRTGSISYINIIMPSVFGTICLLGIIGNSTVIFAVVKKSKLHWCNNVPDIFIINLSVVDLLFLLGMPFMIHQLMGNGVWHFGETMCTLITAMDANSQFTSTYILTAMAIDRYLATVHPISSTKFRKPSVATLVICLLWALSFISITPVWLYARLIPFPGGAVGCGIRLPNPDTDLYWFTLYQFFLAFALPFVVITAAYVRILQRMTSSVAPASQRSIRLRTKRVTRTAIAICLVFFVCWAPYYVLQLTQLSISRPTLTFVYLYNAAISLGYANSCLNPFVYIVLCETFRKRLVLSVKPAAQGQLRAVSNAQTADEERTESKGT
Sequence of Melanocortin receptor 4 (P32245 whole entry): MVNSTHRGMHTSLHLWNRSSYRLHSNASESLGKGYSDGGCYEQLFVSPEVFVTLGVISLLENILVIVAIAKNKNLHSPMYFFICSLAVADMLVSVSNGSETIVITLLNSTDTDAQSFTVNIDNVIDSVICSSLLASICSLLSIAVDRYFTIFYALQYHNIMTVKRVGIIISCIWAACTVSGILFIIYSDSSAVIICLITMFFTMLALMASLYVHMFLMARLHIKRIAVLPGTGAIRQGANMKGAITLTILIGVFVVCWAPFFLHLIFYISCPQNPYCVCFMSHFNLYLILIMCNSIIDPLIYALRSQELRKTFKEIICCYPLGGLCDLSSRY
Sequence of Intestinal-type alkaline phosphatase (Homo sapiens, UniProt P09923) (P09923 whole entry): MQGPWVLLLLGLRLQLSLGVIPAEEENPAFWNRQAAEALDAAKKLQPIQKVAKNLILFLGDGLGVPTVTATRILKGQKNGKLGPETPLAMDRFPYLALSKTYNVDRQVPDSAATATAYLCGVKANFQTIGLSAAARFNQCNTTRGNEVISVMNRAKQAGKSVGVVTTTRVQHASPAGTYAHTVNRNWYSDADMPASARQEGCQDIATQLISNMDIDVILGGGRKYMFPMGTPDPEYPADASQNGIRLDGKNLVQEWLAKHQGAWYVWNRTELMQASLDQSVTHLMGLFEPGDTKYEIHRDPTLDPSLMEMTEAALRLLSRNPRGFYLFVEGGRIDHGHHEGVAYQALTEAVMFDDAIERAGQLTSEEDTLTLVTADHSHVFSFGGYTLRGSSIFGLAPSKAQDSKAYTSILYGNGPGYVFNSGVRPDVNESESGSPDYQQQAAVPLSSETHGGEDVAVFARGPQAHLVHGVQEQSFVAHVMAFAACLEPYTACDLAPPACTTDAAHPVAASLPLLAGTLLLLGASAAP
Sequence of Protein Wnt-3a (P27467 whole entry): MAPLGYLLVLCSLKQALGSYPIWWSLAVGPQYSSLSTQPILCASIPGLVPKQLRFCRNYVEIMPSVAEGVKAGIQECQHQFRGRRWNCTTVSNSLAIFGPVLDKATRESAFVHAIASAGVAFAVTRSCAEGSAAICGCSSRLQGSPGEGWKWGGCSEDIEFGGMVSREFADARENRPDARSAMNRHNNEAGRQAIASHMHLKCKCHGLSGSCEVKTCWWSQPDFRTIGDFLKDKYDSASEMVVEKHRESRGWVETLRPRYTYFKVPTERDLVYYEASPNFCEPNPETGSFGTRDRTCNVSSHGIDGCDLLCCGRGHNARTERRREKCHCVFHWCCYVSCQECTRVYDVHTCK
Sequence of Intestinal-type alkaline phosphatase (Mus musculus, UniProt P24822) (P24822 whole entry): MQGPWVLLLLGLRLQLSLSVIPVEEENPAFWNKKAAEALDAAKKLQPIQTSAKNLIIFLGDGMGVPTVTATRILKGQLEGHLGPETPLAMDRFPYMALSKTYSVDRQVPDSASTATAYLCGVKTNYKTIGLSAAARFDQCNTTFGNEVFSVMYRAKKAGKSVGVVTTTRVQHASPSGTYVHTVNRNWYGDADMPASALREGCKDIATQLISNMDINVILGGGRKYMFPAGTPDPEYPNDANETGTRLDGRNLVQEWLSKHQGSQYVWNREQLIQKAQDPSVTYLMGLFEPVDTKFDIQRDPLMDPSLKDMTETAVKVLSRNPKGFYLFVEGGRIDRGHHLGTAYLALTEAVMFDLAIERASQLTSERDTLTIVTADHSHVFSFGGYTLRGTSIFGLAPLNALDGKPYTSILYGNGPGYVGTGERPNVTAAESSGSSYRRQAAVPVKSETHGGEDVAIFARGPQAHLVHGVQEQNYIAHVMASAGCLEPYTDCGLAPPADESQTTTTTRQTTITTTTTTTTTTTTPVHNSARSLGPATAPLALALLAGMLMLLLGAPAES
Sequence of Mitochondrial peptide methionine sulfoxide reductase (P54149 whole entry): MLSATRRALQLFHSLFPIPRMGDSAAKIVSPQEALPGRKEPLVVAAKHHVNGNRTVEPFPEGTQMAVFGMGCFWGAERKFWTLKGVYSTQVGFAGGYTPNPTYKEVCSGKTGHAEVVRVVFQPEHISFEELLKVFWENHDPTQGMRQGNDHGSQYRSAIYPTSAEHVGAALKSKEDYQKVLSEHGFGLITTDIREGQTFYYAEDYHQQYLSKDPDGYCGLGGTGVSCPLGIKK

IC50 [2]: > 100 µM (inactive)
Compound: COc1ccc(-c2cc(NCc3ccccn3)n3ncnc3n2)cc1
AC50 [1]: 91.5 µM (active)

IC50 [5]: 3.5 µM (active)
IC50 (Caspase-3): 0.97 µM (active)
IC50 [7]: 2 µM (active)
Compound: Oc1ccccc1-c1noc(-c2ccccc2O)n1
IC50 [6]: 3.6 µM (active)

IC50 [5]: > 99 µM (inactive)
IC50 (Caspase-3): > 99 µM (inactive)
IC50 [7]: > 99 µM (inactive)
Compound: CCOC(=O)c1c(-c2ccc(-c3ccccc3)cc2)csc1NC(=O)c1ccc(C)cc1
IC50 [6]: > 99 µM (inactive)

EC50 (Melanocortin receptor 4): > 89.2 µM (inactive)
Compound: CCOC(=O)c1ccc(-c2ccc(/C=C(\C#N)C(=O)NCc3cccs3)o2)cc1

The next lines start with the compound.

Compound: CCC(C#N)c1c(Cl)cnn(Cc2cccc3ccccc23)c1=O (configuration not stated)
IC50 [3]: 2.17 µM (active)
IC50 [4]: 2.17 µM (active)

Compound: N#CC(C#N)c1cnn(Cc2cccc3ccccc23)c(=O)c1Cl
IC50 [3]: > 20 µM (inactive)
IC50 [4]: > 20 µM (inactive)

Compound: C[C@@H]1O[C@@H](O[C@H]2[C@H](O)[C@@H](O)[C@H](Oc3c(-c4ccc(O)c(O)c4)oc4cc(O)cc(O)c4c3=O)O[C@@H]2CO)[C@H](O)[C@H](O)[C@H]1O
AC50 [8]: 4.28 µM (active)
IC50 [9]: 10.8 µM (active)
IC50 [10]: 5.66 µM (active)
EC50 [11]: 22 µM (active)
AC50 [12]: 11.4 µM (active)

Compound: c1ccc(-c2cn3c([n+]2-c2ccccc2)SCC3)cc1
IC50 (Protein Wnt-3a): 37.6 µM (inactive)
EC50 [13]: > 60 µM (not active)
EC50 [14]: 1.92 µM (active)

Compound: C[C@@H]1O[C@@H](Oc2c(-c3ccc(O)c(O)c3)oc3cc(O)cc(O)c3c2=O)[C@H](O)[C@H](O)[C@H]1O [QUERCITRIN]
AC50 [8]: 2.48 µM (active)

Compound: CCCCc1[nH]nc2c1/C(=N/OCC)CC(C)(C)C2
IC50 [15]: 155 µM (inactive)
EC50 [16]: > 195 µM (not active)

Compound: COc1ccccc1-c1nc(C(N)=O)c2[nH]c(=O)n(-c3cccc(C)c3)c2n1
EC50 [17]: 17.2 µM (active)
